Article PMC6941952, “A homogeneous bioluminescent immunoassay to probe cellular signaling pathway regulation” (Communications Biology, 2020)
Several values for one entry are separate records, joined by “and”; a condition that tells them apart may be missing. Equal values may be shown once.

Test system: total IκBα
Assay: NanoBiT cell-based immunoassay, total IκBα in MCF-7 cells
Design: species or system human
Conditions: 4 h; for Average IkB protein (%) / Raw data IkB / Subtract reagent background IkB / protein (%) IkB: MCF-7, Fig 7c; for protein (%) IkB: replicate
Procedure: Prior to NanoBiT Cell-Based Immunoassay, 50,000 cells were seeded in 160 µl of complete growth media per well of a 96-well plate and incubated overnight. […] If necessary, the cell culture media were replaced with serum-free media after the cells were stably adherent on the plate and incubated overnight. To treat cells with activators or inhibitors, medium was changed to 30 µl of medium containing inhibitors. If activation of a specific pathway is needed, the cells were stimulated with 10 µl of medium containing activators. To lyse the cells, 10 µl of lysis buffer containing 0.1% digitonin diluted in 1X immunoassay buffer with protease and phosphatase inhibitors was added and the plates were mixed vigorously for 20 min. Then, 50 µl of an antibody mix containing two primary antibodies against the target protein and NanoBiT detecting antibodies (0.3 µl each per well), diluted in 1X immunoassay buffer was added to the lysates. The plates were incubated at 23 °C for 90 min, followed by the addition of 25 µl of Nano-Glo® reagent consisting of Nano-Glo® Luciferase Assay Substrate mixed with 1X immunoassay buffer. Luminescence was measured using a plate-reading luminometer.
Single dose or dose response inhibitor treatments were performed prior to activation of the pathways as follows. For IκBα, the cells were treated in 30 µl medium with IKK16 or MG132 for 60 min before the addition of 10 µl of DMEM containing appropriate concentration of TNFα. To measure phosphorylation of AKT or STAT3, the corresponding NanoBiT immunoassays were developed with MCF-7 or A431 cells, respectively, according the same scheme used to develop the IκBα assay using the primary antibodies for AKT and STAT3 described in the reagents section. […] Treatment with LY294002 was performed in 30 µl medium and cells were incubated for 60 min before the addition of 1 µM Insulin. To measure STAT3 phosphorylation, A431 cells were incubated overnight in DMEM medium without serum. […] After addition of the stimulators, the cells were incubated for additional times as follows. IκBα phosphorylation and degradation analyses required both time courses and single time points as described in figures. […] The NanoBiT immunoassay protocol was followed as described above.
All 96-well assay plates were read using a GloMax® 96 Microplate Luminometer from Promega. The instrument was set to 0.5 s integration time. In order to obtain net change of signal, the reagent background values (signal from the well containing all reagent except primary antibodies) were subtracted from the sample values. To plot and analyze the data, Microsoft Excel and GraphPad Prism® Software were used. IC50 values were determined by using a nonlinear regression fit to a sigmoidal dose response (variable slope).

## C[C@]12CC[C@@H]3c4ccc(O)cc4C[C@@H](CCCCCCCCC[S+]([O-])CCCC(F)(F)C(F)(F)F)[C@H]3[C@@H]1CC[C@@H]2O (stereo partly drawn) [Fulvestrant]
Fulvestrant 0.0976562 nM
  Average IkB protein (%): 103.1%
  Raw data IkB: 2320000 and 2388000 and 2321000
  Subtract reagent background IkB: 2160700 and 2093700 and 2092700
  protein (%) IkB: 102.8% and 100.3% and 106.3%
Fulvestrant 0.195312 nM
  Average IkB protein (%): 102.8%
  Raw data IkB: 2292000 and 2388000 and 2330000
  Subtract reagent background IkB: 2161100 and 2103100 and 2065100
  protein (%) IkB: 102.8% and 100.7% and 104.9%
Fulvestrant 0.390625 nM
  Average IkB protein (%): 106.4%
  Raw data IkB: 2337000 and 2479000 and 2412000
  Subtract reagent background IkB: 2252550 and 2185550 and 2110550
  protein (%) IkB: 107.1% and 104.7% and 107.3%
Fulvestrant 0.78125 nM
  Average IkB protein (%): 107.7%
  Raw data IkB: 2309000 and 2550000 and 2458000
  Subtract reagent background IkB: 2323650 and 2231650 and 2082650
  protein (%) IkB: 110.5% and 106.9% and 105.8%
Fulvestrant 1.5625 nM
  Average IkB protein (%): 109.4%
  Raw data IkB: 2305000 and 2596000 and 2525000
  Subtract reagent background IkB: 2368700 and 2297700 and 2077700
  protein (%) IkB: 110.1% and 105.6%
Fulvestrant 3.125 nM
  Average IkB protein (%): 110.7%
  Raw data IkB: 2392000 and 2556000 and 2547000
  Subtract reagent background IkB: 2330150 and 2321150 and 2166150
  protein (%) IkB: 110.8% and 111.2% and 110.1%
Fulvestrant 6.25 nM
  Average IkB protein (%): 107.5%
  Raw data IkB: 2316000 and 2499000 and 2485000
  Subtract reagent background IkB: 2273600 and 2259600 and 2090600
  protein (%) IkB: 108.1% and 108.2% and 106.2%
Fulvestrant 25 nM
  Average IkB protein (%): 102.2%
  Raw data IkB: 2228000 and 2399000 and 2343000
  Subtract reagent background IkB: 2174600 and 2118600 and 2003600
  protein (%) IkB: 103.4% and 101.5% and 101.8%
Fulvestrant 50 nM
  Average IkB protein (%): 99.5%
  Raw data IkB: 2216000 and 2302000 and 2278000
  Subtract reagent background IkB: 2078950 and 2054950 and 1992950
  protein (%) IkB: 98.9% and 98.4% and 101.3%
Fulvestrant 100 nM
  Average IkB protein (%): 94.0%
  Raw data IkB: 2084000 and 2146000 and 2219000
  Subtract reagent background IkB: 1926250 and 1999250 and 1864250
  protein (%) IkB: 91.6% and 95.8% and 94.7%
MCF-7 cells
  cytotoxicity inferred from IκBα level: lack of cytotoxicity
MCF-7 cells, same compound titration
  effect on IκBα protein level: did not affect
